Data reported in article PMC9243336, “Santalol Isomers Inhibit Transthyretin Amyloidogenesis and Associated Pathologies in Caenorhabditis elegans” (Frontiers in Pharmacology, 2022).

Assays:
[1] = molecular target: T1, Transthyretin (TTR, prealbumin), wild type (Homo sapiens, UniProt P02766); assay: acid-induced (pH […] h) aggregation turbidity; urea denaturation by Trp fluorescence; format: biochemical
T1 construct: homotetramer; prealbumin from human plasma

Transthyretin (TTR) V30M = Transthyretin (TTR) V30M (Homo sapiens, UniProt P02766, V50M); assay: as above; format: biochemical

EC50 [1] [µM] | EC50 (Transthyretin (TTR) V30M) [µM] | Structure (SMILES)
36.7 ± 1.2 | 44.3 ± 3.5 | C/C(=C/CC[C@@]1(C)C2C[C@@H]3[C@H](C2)C31C)CO [α-santalol]
31.1 ± 2.4 | 34.5 ± 2.8 | C=C1[C@@H]2CC[C@@H](C2)[C@@]1(C)CC/C=C(/C)CO [β-santalol]
